Source: BindingDB's records for doi:10.1016/j.bmcl.2005.07.060 (Universidad De Buenos Aires, 2005)

molecular target: farnesyl pyrophosphate synthase (Trypanosoma cruzi); experiment: Inhibitory concentration against Trypanosoma cruzi farnesyl pyrophosphate synthase (TcFPPS)

Row | SMILES | IC50
1 | CCC(N)(P(=O)(O)O)P(=O)(O)O [(1-Amino-1-phosphono-propyl)-phosphonic acid] | 150 µM
2 | CCCCC(N)(P(=O)(O)O)P(=O)(O)O [(1-Amino-1-phosphono-pentyl)-phosphonic acid] | 3.91 µM
3 | CC(N)(P(=O)(O)O)P(=O)(O)O [(1-Amino-1-phosphono-ethyl)-phosphonic acid] | 66.7 µM
4 | CCCCCC(N)(P(=O)(O)O)P(=O)(O)O [(1-Amino-1-phosphono-hexyl)-phosphonic acid] | 0.382 µM
5 | CCCCCCC(N)(P(=O)(O)O)P(=O)(O)O [(1-Amino-1-phosphono-heptyl)-phosphonic acid] | 3.57 µM
6 | CCCC(N)(P(=O)(O)O)P(=O)(O)O [(1-Amino-1-phosphono-butyl)-phosphonic acid] | 30.8 µM
